How the values were obtained:
Test in all cases: biochemical
AtPORC = biological target: T1, AtPORC (Arabidopsis thaliana, UniProt O48741); settings: 400 uM OPT lipids, 5 uM Pchlide, 15 uM LPOR
T1 construct: gene PORC
T1 sequence (O48741 68-401): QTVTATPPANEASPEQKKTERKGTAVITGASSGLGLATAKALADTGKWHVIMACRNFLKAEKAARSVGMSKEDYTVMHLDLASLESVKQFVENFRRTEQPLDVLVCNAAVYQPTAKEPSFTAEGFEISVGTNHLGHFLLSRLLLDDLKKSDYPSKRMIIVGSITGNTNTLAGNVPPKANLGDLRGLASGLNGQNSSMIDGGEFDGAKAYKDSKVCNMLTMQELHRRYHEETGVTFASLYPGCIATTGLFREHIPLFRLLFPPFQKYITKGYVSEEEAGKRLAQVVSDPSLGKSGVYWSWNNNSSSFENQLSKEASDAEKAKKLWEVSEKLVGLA
Description: (§1) (Figs. 3A, S2). […] The resulting plots resembled saturation curves, to which a hyperbolic function similar to the Michaelis–Menten equation could be fitted (Figs. 3B, S3, Materials and Methods). […] However, KM^L values were consistently lower than KM^D values. […] The addition of 400 μM OPT lipids lowered the KM^D constant for all isoforms, except for SlPOR1, SlPOR3, HaPOR1, HaPOR2, and PeaPOR, where the constant remained unchanged within error estimates. […] Shaded areas represent the SD between replicates. […] A fit of a modified Michaelis–Menten equation is shown, along with the graphical representation of KM^D (B) or KM^L (C). Spectra corresponding to the given F648/F635 values (B) or F Chlide/F Pchlide values (C) are shown on the right side of the plot. D, relationship between KM^D and KM^L for investigated isoforms. The overall distribution of data points is shown in gray. Error bars represent the uncertainty associated with the fitted constant KM^x. Closed symbols represent constants determined for samples not supplemented with lipids, while open symbols these determined in the presence of 400 μM OPT lipids. LPOR, light-dependent protochlorophyllide oxidoreductase; Pchlide, protochlorophyllide; Chlide, chlorophyllide.

HaPOR2 = biological target: T2, HaPOR2 (Helianthus annuus, UniProt A0A251TWA4); settings: 5 uM Pchlide, 15 uM LPOR
T2 construct: gene PORA; transit peptide removed; pET15b
T2 sequence (A0A251TWA4 53-387): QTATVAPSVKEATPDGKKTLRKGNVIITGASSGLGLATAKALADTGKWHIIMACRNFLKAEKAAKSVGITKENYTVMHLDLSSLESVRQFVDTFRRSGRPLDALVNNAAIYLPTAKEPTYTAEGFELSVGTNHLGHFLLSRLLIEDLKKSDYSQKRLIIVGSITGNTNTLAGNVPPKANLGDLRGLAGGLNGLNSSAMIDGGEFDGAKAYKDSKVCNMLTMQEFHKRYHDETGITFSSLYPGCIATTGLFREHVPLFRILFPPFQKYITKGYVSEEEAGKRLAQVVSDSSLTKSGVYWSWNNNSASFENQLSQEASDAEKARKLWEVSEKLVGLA
Description: as §1

HaPOR3 = biological target: T3, HaPOR3 (Helianthus annuus, UniProt A0A251UT40); settings: 400 uM OPT lipids, 5 uM Pchlide, 15 uM LPOR
T3 construct: gene POR; transit peptide removed; pET15b
T3 sequence (A0A251UT40 51-384): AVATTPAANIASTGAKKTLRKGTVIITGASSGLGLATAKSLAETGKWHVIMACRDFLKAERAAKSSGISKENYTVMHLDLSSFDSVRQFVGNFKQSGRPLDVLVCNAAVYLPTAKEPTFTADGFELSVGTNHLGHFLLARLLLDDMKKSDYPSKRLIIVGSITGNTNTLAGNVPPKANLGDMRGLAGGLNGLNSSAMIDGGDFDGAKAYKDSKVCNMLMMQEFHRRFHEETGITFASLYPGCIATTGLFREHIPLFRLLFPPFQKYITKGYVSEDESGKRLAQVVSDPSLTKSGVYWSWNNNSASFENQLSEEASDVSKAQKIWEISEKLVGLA
Description: as §1

PeaPOR = biological target: T4, PeaPOR (Lathyrus oleraceus, UniProt Q01289); settings: 5 uM Pchlide, 15 uM LPOR
T4 construct: gene 3PCR; transit peptide removed; pET15b
T4 sequence (Q01289 65-399): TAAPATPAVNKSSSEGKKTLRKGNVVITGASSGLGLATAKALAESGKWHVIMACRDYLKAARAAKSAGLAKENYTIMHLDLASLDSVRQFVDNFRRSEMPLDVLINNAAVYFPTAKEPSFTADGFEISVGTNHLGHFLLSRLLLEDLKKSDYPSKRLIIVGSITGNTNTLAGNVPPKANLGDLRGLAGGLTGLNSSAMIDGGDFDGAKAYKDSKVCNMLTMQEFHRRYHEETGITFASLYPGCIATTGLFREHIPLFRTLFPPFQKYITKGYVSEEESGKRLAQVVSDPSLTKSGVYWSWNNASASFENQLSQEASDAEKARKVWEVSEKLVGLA
Description: as §1

PinPOR = biological target: T5, PinPOR (Pinus mugo, UniProt Q41202); settings: 5 uM Pchlide, 15 uM LPOR
T5 construct: transit peptide removed; pET15b
T5 sequence (Q41202 67-400): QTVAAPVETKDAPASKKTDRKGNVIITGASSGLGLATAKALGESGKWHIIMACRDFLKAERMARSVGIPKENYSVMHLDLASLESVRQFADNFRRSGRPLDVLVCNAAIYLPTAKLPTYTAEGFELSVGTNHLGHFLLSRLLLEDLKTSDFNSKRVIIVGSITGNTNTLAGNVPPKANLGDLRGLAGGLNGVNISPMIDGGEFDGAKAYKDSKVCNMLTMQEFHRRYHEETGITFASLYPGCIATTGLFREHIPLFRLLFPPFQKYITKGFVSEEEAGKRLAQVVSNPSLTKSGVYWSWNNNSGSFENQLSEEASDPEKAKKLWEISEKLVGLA
Description: as §1

TaPOR1 = biological target: T6, TaPOR1 (Triticum aestivum, UniProt Q41578); settings: 5 uM Pchlide, 15 uM LPOR
T6 construct: gene PORA
T6 sequence (Q41578 75-388): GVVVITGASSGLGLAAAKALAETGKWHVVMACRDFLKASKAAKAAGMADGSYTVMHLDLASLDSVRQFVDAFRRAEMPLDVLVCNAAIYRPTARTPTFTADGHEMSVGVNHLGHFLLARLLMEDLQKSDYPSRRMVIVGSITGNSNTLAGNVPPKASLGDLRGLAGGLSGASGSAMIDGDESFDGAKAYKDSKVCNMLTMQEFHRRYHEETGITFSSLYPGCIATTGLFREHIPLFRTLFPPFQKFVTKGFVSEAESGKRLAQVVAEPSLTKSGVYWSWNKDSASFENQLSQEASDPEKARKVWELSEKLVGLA
Description: as §1

Michaelis-like constant in the dark (KM^D) (AtPORC): 0.8 µM | Dark Michaelis-like constant (KM^D) (HaPOR2; 400 uM OPT lipids): 2.2 µM | apparent Michaelis constant in the dark (KM^D) (HaPOR2; no lipids): 9.4 µM | apparent Michaelis constant in dark (KM^D) (HaPOR3): 3.9 µM | apparent Michaelis constant in the dark (KM^D) (PeaPOR; 400 uM OPT lipids): 4.7 µM | Michaelis constant in the dark (KM^D) (PeaPOR; no lipids): 10.8 µM | Michaelis constant, dark (KM^D) (PinPOR; 400 uM OPT lipids): 1.3 µM | apparent Michaelis constant in dark (KM^D) (PinPOR; no lipids): 4.3 µM | Km (apparent, dark, KM^D) (TaPOR1; 400 uM OPT lipids): 45.8 µM | apparent Michaelis constant (KM^D) (TaPOR1; no lipids, dark): 394 µM
Compound: NC(=O)C1=CN([C@@H]2O[C@H](COP(=O)(O)OP(=O)(O)OC[C@H]3O[C@@H](n4cnc5c(N)ncnc54)[C@H](OP(=O)(O)O)[C@@H]3O)[C@@H](O)[C@H]2O)C=CC1 [NADPH]
